Like-named read-outs stand apart in the source and are kept apart here.
How the values were obtained:
BpsCA-β [1] = target: T1, BpsCA-β (Burkholderia pseudomallei, UniProt Q63Y17); assay: biochemical
T1 construct: gene BPSL0372

Rv3273-β [2] = target: T2, Rv3273-β (Mycobacterium tuberculosis, UniProt P96878); assay: biochemical
StCA2-β = target: T3, StCA2-β; assay: stopped-flow CO2 hydration assay; format: biochemical, Salmonella enterica subsp. enterica serovar Typhimurium; conditions: CO2 1.7-17 mM; pH 8.3 TRIS; 20 mM Na2SO4; 15 min preincubation, room temperature
T3 construct: recombinant, obtained in-house; construct not described

VchCA-α [3] = target: T4, VchCA-α (Vibrio cholerae, UniProt Q9KMP6); assay: biochemical
T4 construct: gene VC_A0274

VchCA-β [4] = target: T5, VchCA-β (Vibrio cholerae, UniProt A0A086SLX8); assay: biochemical
T5 construct: gene can

VchCA-β [5] = target: T5, VchCA-β; assay: biochemical; remark: listed apart in the source
VchCA-α [6] = target: T4, VchCA-α; assay: biochemical; remark: listed apart in the source
Rv3273-β [7] = target: T2, Rv3273-β; assay: biochemical; remark: listed apart in the source
BpsCA-γ = target: T6, BpsCA-γ; format: biochemical, Burkholderia pseudomallei
T6 construct: gene BpsCA-gamma

BpsCA-β [8] = target: T1, BpsCA-β; assay: biochemical; remark: listed apart in the source

T1 sequence (Q63Y17 1-256): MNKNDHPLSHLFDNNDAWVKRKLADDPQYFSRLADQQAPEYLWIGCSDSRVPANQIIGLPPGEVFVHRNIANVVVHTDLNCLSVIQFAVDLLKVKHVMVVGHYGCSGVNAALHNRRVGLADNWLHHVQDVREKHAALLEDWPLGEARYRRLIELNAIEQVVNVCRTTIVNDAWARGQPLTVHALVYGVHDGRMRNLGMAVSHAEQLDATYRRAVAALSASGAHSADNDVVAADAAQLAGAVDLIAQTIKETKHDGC
T5 sequence (A0A086SLX8 1-222): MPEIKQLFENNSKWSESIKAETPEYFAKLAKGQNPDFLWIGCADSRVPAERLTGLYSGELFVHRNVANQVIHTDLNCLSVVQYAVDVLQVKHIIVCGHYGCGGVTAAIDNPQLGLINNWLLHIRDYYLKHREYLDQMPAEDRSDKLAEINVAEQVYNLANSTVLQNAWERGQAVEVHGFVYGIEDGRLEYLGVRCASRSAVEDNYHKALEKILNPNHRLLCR
T2 sequence (P96878 540-764 limits assumed): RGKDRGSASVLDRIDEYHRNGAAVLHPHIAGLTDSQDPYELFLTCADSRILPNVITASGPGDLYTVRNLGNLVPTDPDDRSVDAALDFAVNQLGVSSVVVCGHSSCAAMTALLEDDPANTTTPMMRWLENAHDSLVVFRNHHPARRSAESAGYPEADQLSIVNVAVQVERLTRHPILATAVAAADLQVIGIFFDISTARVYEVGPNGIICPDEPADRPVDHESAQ
T4 sequence (Q9KMP6 21-239 limits assumed): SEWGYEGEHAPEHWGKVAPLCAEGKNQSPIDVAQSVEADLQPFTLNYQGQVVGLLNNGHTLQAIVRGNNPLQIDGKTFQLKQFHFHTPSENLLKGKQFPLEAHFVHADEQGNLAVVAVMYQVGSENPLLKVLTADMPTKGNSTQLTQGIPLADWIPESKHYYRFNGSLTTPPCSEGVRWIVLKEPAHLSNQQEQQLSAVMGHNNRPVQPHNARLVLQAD

Row | Compound | Ki (BpsCA-β [1]) [nM] | Ki (Rv3273-β [2]) [nM] | Ki (StCA2-β) [nM] | Ki (VchCA-α [3]) [nM] | Ki (VchCA-β [4]) [nM] | Ki (VchCA-β [5]) [nM] | Ki (VchCA-α [6]) [nM] | other results
1 | COc1ccc([Se]CC(=O)Nc2ccc([Se]Cc3ccc(S(N)(=O)=O)cc3)cc2)cc1 [9d] | > 10000 | > 10000 | 7.5 | 8.9 | 82.9 |  |  | 
2 | NS(=O)(=O)c1ccc(C[Se]c2ccc(NC(=O)CSc3ccc(Br)cc3)cc2)cc1 [5b] | > 10000 | > 10000 | 8.2 | 45.8 |  | 581 |  | 
3 | C=C(C)[C@H]1CCC(C)(O)C([Se]CC(=O)NCCc2ccc(S(N)(=O)=O)cc2)C1 (stereo partly drawn) [8e] | > 10000 | > 10000 | 8.9 |  |  | 309 | 6.1 | 
4 | CC(O)CSCC(=O)Nc1ccc(S(N)(=O)=O)cc1 (stereo not drawn) [3e] | > 10000 |  |  | 44.7 |  | 6650 |  | Ki (Rv3273-β [7]): 214 nM; Ki (BpsCA-γ): 322 nM
5 | NS(=O)(=O)c1ccc(CCNC(=O)C[Se]c2ccccc2)cc1 [8a] | > 10000 | 1500 |  | 44.4 |  | 6590 |  | 
6 | Cc1ccc(S(=O)(=O)N[C@H](C[Se]CC(=O)NCCc2ccc(S(N)(=O)=O)cc2)C(C)C)cc1 [8d] | > 10000 | > 10000 |  | 62.3 |  | 828 |  | 
7 | Cc1ccccc1[Se]CC(=O)Nc1ccc(S(N)(=O)=O)cc1 [7c] |  |  |  |  |  |  |  | Ki (BpsCA-β [1]; read-out: BpsCA-β, inhibitor): > 10000 nM; Ki (Rv3273-β [2]; read-out: Rv3273-β, inhibitor): > 10000 nM; Ki (VchCA-β [5]; read-out: VchCA-β, inhibitor): 6210 nM; Ki (VchCA-α [3]; read-out: VchCA-α, inhibitor): 41.7 nM
8 | NS(=O)(=O)c1ccc(NC(=O)C[Se]c2ccccc2)cc1 [7a] |  |  |  |  | 96.3 |  | 2.2 | Ki (Rv3273-β [7]): 203 nM; Ki (BpsCA-β [8]): 4090 nM; Ki (BpsCA-γ; CO2 1.7-17 mM, buffer pH for γ-CA not stated, 20 mM Na2SO4, 15 min preincubation, room temperature): 304 nM
9 | Cc1ccc([Se]CC(=O)Nc2ccc(S(N)(=O)=O)cc2)cc1 [7b] | > 10000 | 283 |  | 7.7 |  | 762 |  | 
10 | COc1ccc([Se]CC(=O)NCCc2ccc(S(N)(=O)=O)cc2)cc1 [8c] | > 10000 | > 10000 |  |  | 85 |  | 3.2 | 

From publication PMC7014678 (International Journal of Molecular Sciences, 2020)
